“And” between values parts separate entries of the source, which are not always exact repeats. Equal values may be shown once. Toxic doses and inconclusive results are not listed. No stated cut-off is given here; in the data, active means T/C of 150% or more; inactive means T/C below 125%.
System: L1210 leukemia ip in BDF1 mice, survival T/C
Test: NCI In Vivo Anticancer Drug Screen. Data for tumor model L1210 Leukemia (intraperitoneal) in B6D2F1 (BDF1) mice
Settings: endpoint: mean survival time, higher = longer survival
Method in brief: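 Mice bearing the transplanted tumor received compound or vehicle. Survival of the treated group was divided by that of the vehicle-treated control group to give the ratio.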

[1] = dose: 100.0 mg/kg/injection, schedule: Q04DX003 (ip), vehicle: Klucel (hydroxypropylcellulose) (HPC)
[2] = dose: 200.0 mg/kg/injection, schedule: Q04DX003 (ip), vehicle: Klucel (hydroxypropylcellulose) (HPC)
[3] = dose: 400.0 mg/kg/injection, schedule: Q04DX003 (ip), vehicle: Klucel (hydroxypropylcellulose) (HPC)
[4] = dose: 100.0 mg/kg/injection, schedule: Q01DX009 (ip), vehicle: saline with Tween-80
[5] = dose: 200.0 mg/kg/injection, schedule: Q01DX009 (ip), vehicle: saline with Tween-80
[6] = dose: 50.0 mg/kg/injection, schedule: Q01DX009 (ip), vehicle: Klucel (hydroxypropylcellulose) (HPC)
[7] = dose: 100.0 mg/kg/injection, schedule: Q01DX009 (ip), vehicle: Klucel (hydroxypropylcellulose) (HPC)
[8] = dose: 200.0 mg/kg/injection, schedule: Q01DX009 (ip), vehicle: Klucel (hydroxypropylcellulose) (HPC)
[9] = dose: 100.0 mg/kg/injection, schedule: Q04DX003 (ip), vehicle: saline with Tween-80
[10] = dose: 200.0 mg/kg/injection, schedule: Q04DX003 (ip), vehicle: saline with Tween-80
[11] = dose: 400.0 mg/kg/injection, schedule: Q04DX003 (ip), vehicle: saline with Tween-80
[12] = dose: 100.0 mg/kg/injection, schedule: Q04DX002 (ip), vehicle: Klucel (hydroxypropylcellulose) (HPC)
[13] = dose: 200.0 mg/kg/injection, schedule: Q04DX002 (ip), vehicle: Klucel (hydroxypropylcellulose) (HPC)
[14] = dose: 400.0 mg/kg/injection, schedule: Q01DX009 (ip), vehicle: Klucel (hydroxypropylcellulose) (HPC)
[15] = dose: 400.0 mg/kg/injection, schedule: Q04DX002 (ip), vehicle: Klucel (hydroxypropylcellulose) (HPC)

Measured: T/C

N#CCCCCCCCCC(=O)c1ccc(O)cc1O
inactive: dose: 87.5 mg/kg/injection, schedule: Q01DX009 (ip), vehicle: Klucel (hydroxypropylcellulose) (HPC) 96 % of control | dose: 175.0 mg/kg/injection, schedule: Q01DX009 (ip), vehicle: Klucel (hydroxypropylcellulose) (HPC) 100 % of control | dose: 350.0 mg/kg/injection, schedule: Q01DX009 (ip), vehicle: Klucel (hydroxypropylcellulose) (HPC) 102 % of control

CCOC(=O)C(=O)c1cnc2c(OC)nn(O)cc1-2
inactive: dose: 12.5 mg/kg/injection, schedule: Q04DX002 (ip), vehicle: saline with Tween-80 102 % of control | dose: 25.0 mg/kg/injection, schedule: Q04DX002 (ip), vehicle: saline with Tween-80 109 % of control | dose: 50.0 mg/kg/injection, schedule: Q04DX002 (ip), vehicle: saline with Tween-80 102 % of control

CCCCCCCCCCCCCCCC1=NN(c2ccc([N+](=O)[O-])cc2)C(=O)C1
inactive: [1] 94 % of control | [2] 89 % of control | [3] 100 % of control

C(=C1\CC(c2ccccc2)(c2ccccc2)N=N1)/c1ccccc1
inactive: [1] 91 % of control | [2] 114 % of control | [3] 101 % of control

O=C(N/C=C/NC(=O)Nc1ccc([N+](=O)[O-])cc1)Nc1ccc([N+](=O)[O-])cc1
inactive: [1] 100 % of control | [2] 89 % of control | [3] 92 % of control

CN(C)c1ccc([N+](=O)[O-])cc1[N+](=O)[O-]
inactive: dose: 100.0 mg/kg/injection, schedule: Q01DX001 (ip), vehicle: other 111 % of control | dose: 200.0 mg/kg/injection, schedule: Q01DX001 (ip), vehicle: other 101 % of control

CCN(CC)COC(=O)C(C)(C)C
inactive: dose: 75.0 mg/kg/injection, schedule: Q01DX001 (ip), vehicle: carboxymethylcellulose (CMC) 103 % of control | dose: 150.0 mg/kg/injection, schedule: Q01DX001 (ip), vehicle: carboxymethylcellulose (CMC) 94 % of control

CC(=O)Nc1ccc(Br)c(NC(C)=O)n1
inactive: [4] 109 % of control | [5] 101 % of control | dose: 400.0 mg/kg/injection, schedule: Q01DX009 (ip), vehicle: saline with Tween-80 112 % of control

O=C1O/C(=C/c2ccccc2)C2CCCCC12 (stereo not given)
inactive: dose: 100.0 mg/kg/injection, schedule: Q01DX009 (ip), vehicle: saline 90 % of control | dose: 100.0 mg/kg/injection, schedule: Q04DX003 (ip), vehicle: saline 105 % of control | dose: 200.0 mg/kg/injection, schedule: Q01DX009 (ip), vehicle: saline 93 % of control | dose: 200.0 mg/kg/injection, schedule: Q04DX003 (ip), vehicle: saline 93 % of control | dose: 400.0 mg/kg/injection, schedule: Q01DX009 (ip), vehicle: saline 95 % of control | dose: 400.0 mg/kg/injection, schedule: Q04DX003 (ip), vehicle: saline 95 % of control

CC(=O)CC(=O)NCCN1CCN(C(=O)CC(C)=O)CC1
inactive: dose: 100.0 mg/kg/injection, schedule: Q01DX001 (ip), vehicle: saline 93 % of control | dose: 200.0 mg/kg/injection, schedule: Q01DX001 (ip), vehicle: saline 101 % of control | dose: 400.0 mg/kg/injection, schedule: Q01DX001 (ip), vehicle: saline 98 % of control

N#CC(C#N)=Cc1cccc2ccccc12
inactive: [6] 97 % of control and 91 % of control | [7] 95 % of control and 103 % of control | [1] 102 % of control | [8] 96 % of control and 105 % of control | [2] 97 % of control | [3] 103 % of control

O=C(O)CN1C(=O)C2C3C=CC(C3)C2C1=O (stereo not given)
inactive: [9] 97 % of control | [10] 94 % of control | [11] 94 % of control

COc1ccc(NC(=O)O/N=C2\CN(S(=O)(=O)c3ccc(C)cc3)CCc3ccccc32)cc1
inactive: [1] 91 % of control | [2] 94 % of control | [3] 96 % of control

CCN(CC)CCCC#CCN1CCCC1
inactive: [6] 92 % of control | [7] 100 % of control | [1] 91 % of control | [2] 100 % of control

O=C(Nc1ccccc1)N(O)c1ccccc1
inactive: dose: 9.0 mg/kg/injection, schedule: Q01DX015 (ip), vehicle: methylcellulose (MC) 97 % of control | dose: 18.0 mg/kg/injection, schedule: Q01DX015 (ip), vehicle: methylcellulose (MC) 97 % of control | dose: 25.0 mg/kg/injection, schedule: Q01DX015 (ip), vehicle: methylcellulose (MC) 112 % of control | dose: 37.5 mg/kg/injection, schedule: Q01DX015 (ip), vehicle: methylcellulose (MC) 95 % of control | dose: 50.0 mg/kg/injection, schedule: Q01DX015 (ip), vehicle: methylcellulose (MC) 103 % of control | dose: 100.0 mg/kg/injection, schedule: Q01DX015 (ip), vehicle: methylcellulose (MC) 103 % of control | dose: 200.0 mg/kg/injection, schedule: Q01DX015 (ip), vehicle: methylcellulose (MC) 101 % of control

NC(N)=N/N=C/c1ccc(F)cc1
inactive: dose: 15.0 mg/kg/injection, schedule: Q01DX Z (ip), vehicle: carboxymethylcellulose (CMC) 95 % of control | dose: 30.0 mg/kg/injection, schedule: Q01DX Z (ip), vehicle: carboxymethylcellulose (CMC) 101 % of control | dose: 60.0 mg/kg/injection, schedule: Q01DX Z (ip), vehicle: carboxymethylcellulose (CMC) 100 % of control and 109 % of control | dose: 120.0 mg/kg/injection, schedule: Q01DX Z (ip), vehicle: carboxymethylcellulose (CMC) 97 % of control

CCOC(=O)c1ccc(NC(=O)Nc2cc(Cl)ccc2C)cc1
inactive: dose: 25.0 mg/kg/injection, schedule: Q01DX009 (ip), vehicle: Klucel (hydroxypropylcellulose) (HPC) 103 % of control | [6] 108 % of control | [7] 87 % of control and 89 % of control | [8] 98 % of control

O=C(/C=C/c1ccccc1)NC(=S)NCc1ccco1
inactive: [7] 94 % of control and 95 % of control | [12] 97 % of control | [1] 95 % of control | [8] 92 % of control and 98 % of control | [13] 101 % of control and 114 % of control | [2] 95 % of control | [14] 94 % of control and 95 % of control | [15] 95 % of control and 102 % of control | [3] 94 % of control

COc1ccc(C)cc1N=Nc1cc(C)ccc1OC
inactive: dose: 100.0 mg/kg/injection, schedule: Q01DX009 (ip), vehicle: gum acacia 100 % of control | dose: 100.0 mg/kg/injection, schedule: Q04DX003 (ip), vehicle: gum acacia 91 % of control | dose: 200.0 mg/kg/injection, schedule: Q01DX009 (ip), vehicle: gum acacia 91 % of control | dose: 200.0 mg/kg/injection, schedule: Q04DX003 (ip), vehicle: gum acacia 86 % of control | dose: 400.0 mg/kg/injection, schedule: Q01DX009 (ip), vehicle: gum acacia 88 % of control | dose: 400.0 mg/kg/injection, schedule: Q04DX003 (ip), vehicle: gum acacia 92 % of control

CCN(CC)CCN1C(=O)[C@H]2CC=CC[C@H]2C1=O
inactive: dose: 44.0 mg/kg/injection, schedule: Q01DX Z (ip), vehicle: saline 111 % of control | dose: 66.0 mg/kg/injection, schedule: Q01DX Z (ip), vehicle: saline 100 % of control | dose: 100.0 mg/kg/injection, schedule: Q01DX Z (ip), vehicle: saline 98 % of control

CCC1CN2C(=N1)c1ccccc1-c1cc(Cl)cc(Cl)c12 (stereo not given)
inactive: dose: 100.0 mg/kg/injection, schedule: Q01DX005 (ip), vehicle: Klucel (hydroxypropylcellulose) (HPC) 88 % of control | [12] 107 % of control | dose: 200.0 mg/kg/injection, schedule: Q01DX005 (ip), vehicle: Klucel (hydroxypropylcellulose) (HPC) 94 % of control | [13] 101 % of control | dose: 400.0 mg/kg/injection, schedule: Q01DX005 (ip), vehicle: Klucel (hydroxypropylcellulose) (HPC) 102 % of control | [15] 101 % of control

O=C1Nc2ccccc2Cc2ccccc21
inactive: [4] 93 % of control | [9] 102 % of control | [5] 92 % of control | [10] 102 % of control | [11] 107 % of control

CC(C(O)c1ccc2cc(Br)c3ccccc3c2c1)N(C)C (stereo not given)
inactive: dose: 55.0 mg/kg/injection, schedule: Q01DX Z (ip), vehicle: methylcellulose (MC) 101 % of control | dose: 83.0 mg/kg/injection, schedule: Q01DX Z (ip), vehicle: methylcellulose (MC) 101 % of control | dose: 125.0 mg/kg/injection, schedule: Q01DX Z (ip), vehicle: methylcellulose (MC) 101 % of control

CCCCCCCCCCCCCCCCCCNC(=O)N(CC)c1ccccc1
inactive: [7] 101 % of control | [1] 93 % of control | [8] 98 % of control | [2] 101 % of control | [14] 106 % of control | [3] 92 % of control
